pIC50: −log10 of the molar value.
Target: Apoptosis regulator Bcl-2 (Homo sapiens, UniProt P10415)
Assay: Inhibition of BCL-2 (unknown origin) using FITC-Ahx-GQVGRQLAIIGDDINR-CONH2 as substrate incubated for 4 hrs by fluorescence polarization competition assay

Sequence of Apoptosis regulator Bcl-2 (P10415 whole entry): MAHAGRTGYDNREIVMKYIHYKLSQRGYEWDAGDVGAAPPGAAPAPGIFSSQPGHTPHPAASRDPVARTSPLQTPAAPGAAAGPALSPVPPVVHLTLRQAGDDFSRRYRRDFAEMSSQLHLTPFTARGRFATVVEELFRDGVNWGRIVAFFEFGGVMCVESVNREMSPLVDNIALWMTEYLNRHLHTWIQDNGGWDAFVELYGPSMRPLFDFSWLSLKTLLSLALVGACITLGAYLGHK

| pIC50 | SMILES |
| --- | --- |
| > 7.70 | COc1cc(C(=O)NCCNc2ccc(S(=O)(=O)NC(=O)c3ccc(N4CCN(CC5=C(c6ccc(Cl)cc6)CC(C)(C)CC5)CC4)cc3Oc3cnc4[nH]ccc4c3)cc2[N+](=O)[O-])ccc1NC(=O)[C@@H]1N[C@@H](CC(C)(C)C)[C@](C#N)(c2ccc(Cl)cc2F)[C@H]1c1cccc(Cl)c1F |
| > 7.70 | CC1(C)CCC(CN2CCN(c3ccc(C(=O)NS(=O)(=O)c4ccc(NCCNC(=O)COc5cccc6c5C(=O)N(C5CCC(=O)NC5=O)C6=O)c([N+](=O)[O-])c4)c(Oc4cnc5[nH]ccc5c4)c3)CC2)=C(c2ccc(Cl)cc2)C1 (stereo not given) |
| > 7.70 | CC1(C)CCC(CN2CCN(c3ccc(C(=O)NS(=O)(=O)c4ccc(NCCOCCOCCNC(=O)CCNC(=O)COc5cccc6c5C(=O)N(C5CCC(=O)NC5=O)C6=O)c([N+](=O)[O-])c4)c(Oc4cnc5[nH]ccc5c4)c3)CC2)=C(c2ccc(Cl)cc2)C1 (stereo not given) |
| > 7.70 | CC1(C)CCC(CN2CCN(c3ccc(C(=O)NS(=O)(=O)c4ccc(NCCOCCOCCNC(=O)COc5cccc6c5C(=O)N(C5CCC(=O)NC5=O)C6=O)c([N+](=O)[O-])c4)c(Oc4cnc5[nH]ccc5c4)c3)CC2)=C(c2ccc(Cl)cc2)C1 (stereo not given) |
| > 7.70 | COc1cc(C(=O)NCCOCCOCCNc2ccc(S(=O)(=O)NC(=O)c3ccc(N4CCN(CC5=C(c6ccc(Cl)cc6)CC(C)(C)CC5)CC4)cc3Oc3cnc4[nH]ccc4c3)cc2[N+](=O)[O-])ccc1NC(=O)[C@@H]1N[C@@H](CC(C)(C)C)[C@](C#N)(c2ccc(Cl)cc2F)[C@H]1c1cccc(Cl)c1F |
